Data: patent US20220040129A1, “TREATMENT OF HYPERAMMONEMIA IN PATIENTS WITH RENAL INSUFFICIENCY” (RECORDATI S.p.A., priority 2019, published 2022)

Experiments:
[1] = Exposure previously observed in HVs following oral administration; details: human, in vivo, read-out: Highest AUC previously observed
clinical = details: human, in vivo; for CL renal / clearance / half-life / Vd: both sexes; for clearance: Cl
Method: The levels of CGA in plasma and urine were analysed using a fully validated method, which included LC-MS/MS analysis. The PK data were analysed based on a non-compartmental model. A model-based approach was implemented for the characterization of the PK properties of the IV formulation in order to estimate the level of PK exposure after different doses administered with different duration of infusion. The model outcomes provided rationales for supporting decision-making through the dose escalation process. The PK parameters were determined using SAS (version 9.3), and modelling of the PK data was performed using NONMEM (version 7.3, ICON Solutions). PART A: Mono-Centre, Randomized, Successive Groups, Double-Blind, Placebo-Controlled Study in Healthy Male and Female Subjects
Part C was a randomized, double-blind, placebo-controlled study. It was conducted in five successive cohorts of 8 healthy male or female subjects each, for a total of 40 subjects. For each of the five cohorts, 6 subjects were administered CGA and 2 subjects received placebo. The study medication was administered IV, first as a loading dose and then as a maintenance dose. The dosage regimen was determined based both on the results of Part A and PK modelling.
For the first three cohorts, three ascending doses of the study medication were administered IV as loading doses of 2.0, 3.0, and 3.6 mg/kg for 20 minutes, respectively, followed by maintenance doses of 2.5, 3.75 and 4.5 mg/kg/h given by IV infusion over a period of […]. For the fourth cohort, a dose of the IV formulation of CGA determined as being well tolerated was administered as a loading dose by IV infusion over 20 minutes, followed by a maintenance dose administered by IV infusion over a period of up to 12 hours. The 5th cohort received the study medication at the same dose and under the same conditions as the 4th cohort, except for the period during which the maintenance dose was administered, which lasted up to 24 hours.
Blood sample for PK measurements were collected at 18 timepoints for the first three cohorts, and 20 timepoints for the 4th and 5th cohorts. These included a sample preceding the administration of the study medication, and the period from 20 minutes to 48 hours following the initiation of the IV infusion. Urine was also collected for PK measurements at the following intervals relative to the time of initiation of the IV infusion: 0-6, 6-12, 12-24, 24-36, and 36-48 hours. […]

[2] = Population PK model (two-compartment, zero order absorption); design: species or system human; details: value estimated in HVs, fixed in the model
Excerpt: A population PK model was developed using PK data collected from the PK study mentioned above. The data was collected after variable long treatment periods lasting more than a year in some cases, with different doses, and with different dosage regimens in both pediatric and adult volunteers (N=16).
The sparse drug concentrations (24 PK samples) were fitted using a two-compartment model with zero order absorption rate, which was also used to describe the PK time course in the PK study.
The final models for Clearance and Volume were:
Wherein CL is the value of the clearance in a patient, CLt is the typical value of the clearance in adult subjects, WT is the body weight, TM50 is the maturation half time, g is the Hill coefficient and Vt is the typical value of the volume in adult subjects.

[3] = Adverse reactions in retrospective studies of patients with NAGS deficiency, PA, MMA or IVA; assay type: in vivo, human; details: Total Population = 80
Excerpt: Sixty-one percent (61%) of patients were male and 39% of patients were female. In patients with PA, MMA or IVA (48% male and 52% female patients), 57% of decompensation episodes occurred during the first 4 weeks after birth (neonates), and 43% of decompensation episodes occurred beyond the neonatal period. The median age at the start of the decompensation episode was 12 days.

plasma NH3 = assay: Plasma NH3 reduction in Propensity Matching Score (PMS) Population; assay type: in vivo, human
Method: Episodes treated with extracorporeal detoxification (HD, HF, PD) during the timeframe of the analysis were excluded. There were 12 patients in each group, and NH3 levels were measured in 12- and 24-hour periods over 120 hours. […] The two populations analyzed included: 1) Population with baseline plasma NH3 levels over 100 micromol/L in non-neonate or 150 micromol/L in neonate; 2) Propensity Matching Score (PMS) Population. […] These rates of decrease were confirmed to be statistically significant.

NC(=O)N[C@@H](CCC(=O)O)C(=O)O [carglumic acid, N-carbamoyl-L-glutamic acid]
AUC [1]: 30700 ng·h/mL
CL renal (clinical; iv, Average renal clearance): 4.83 mL/min/kg
clearance (clinical; iv, Mean): 5.33 mL/min/kg
clearance (clinical; iv, Median): 5.27 mL/min/kg
half-life (clinical; iv, Mean): 28.4 h
half-life (clinical; iv, Median): 28.5 h
CL renal (clinical; iv, Renal Clearance, Mean): 4.83 mL/min/kg
CL renal (clinical; iv, Renal Clearance, Median): 4.98 mL/min/kg
Vd (clinical; iv, Mean): 13 L/kg
Vd (clinical; iv, Median): 12.8 L/kg
Ae (% of the dose excreted), Max (clinical; both, iv): 111.412%
Ae (% of the dose excreted), Mean (clinical; both, iv): 84.478%
Ae (% of the dose excreted), Median (clinical; both, iv): 86.924%
Ae (% of the dose excreted), Min (clinical; both, iv): 38.756%
Cl, Max (clinical; both, iv): 7.3 mL/min/kg
Cl, Min (clinical; both, iv): 3.2 mL/min/kg
Half-life, Max (clinical; both, iv): 39.987 h
Half-life, Min (clinical; both, iv): 13.598 h
Renal Clearance, Max (clinical; both, iv): 8.5 mL/min/kg
Renal Clearance, Min (clinical; both, iv): 1.93 mL/min/kg
Vd, Max (clinical; both, iv): 19.689 L/kg
Vd, Min (clinical; both, iv): 3.897 L/kg
Dose dependence of AUCinf, AUClast and Cmax (clinical): increased linearly
CLt, typical value of the clearance in adult subjects [2]: 0.178
Adverse reaction Abdominal pain, Number of Patients (N) (%) [3]: 4 (5%) N (%)
Adverse reaction Anemia, Number of Patients (N) (%) [3]: 4 (5%) N (%)
Adverse reaction Anorexia, Number of Patients (N) (%) [3]: 2 (3%) N (%)
Adverse reaction Diarrhea, Number of Patients (N) (%) [3]: 5 (5%) N (%)
Adverse reaction Dysgeusia, Number of Patients (N) (%) [3]: 2 (3%) N (%)
Adverse reaction Ear infection, Number of Patients (N) (%) [3]: 3 (4%) N (%)
Adverse reaction Headache, Number of Patients (N) (%) [3]: 3 (4%) N (%)
Adverse reaction Hemoglobin decreased, Number of Patients (N) (%) [3]: 2 (3%) N (%)
Adverse reaction Hyperhidrosis, Number of Patients (N) (%) [3]: 2 (3%) N (%)
Adverse reaction Infection, Number of Patients (N) (%) [3]: 3 (4%) N (%)
Adverse reaction Influenza, Number of Patients (N) (%) [3]: 2 (3%) N (%)
Adverse reaction Jaundice, Number of Patients (N) (%) [3]: 2 (3%) N (%)
Adverse reaction Nasopharyngitis, Number of Patients (N) (%) [3]: 3 (4%) N (%)
Adverse reaction Nervous system disorder, Number of Patients (N) (%) [3]: 2 (3%) N (%)
Adverse reaction Pneumonia, Number of Patients (N) (%) [3]: 2 (3%) N (%)
Adverse reaction Pyrexia, Number of Patients (N) (%) [3]: 7 (9%) N (%)
Adverse reaction Rash, Number of Patients (N) (%) [3]: 2 (3%) N (%)
Adverse reaction Somnolence, Number of Patients (N) (%) [3]: 2 (3%) N (%)
Adverse reaction Tonsillitis, Number of Patients (N) (%) [3]: 4 (5%) N (%)
Adverse reaction Transaminase increased, Number of Patients (N) (%) [3]: 2 (3%) N (%)
Adverse reaction Vomiting, Number of Patients (N) (%) [3]: 6 (8%) N (%)
Adverse reaction Weight decreased, Number of Patients (N) (%) [3]: 2 (3%) N (%)
Reduction of mean plasma NH3 levels from baseline compared with NH3 Scav alone (plasma NH3; 12 patients per group, over 120 hours): consistent and meaningful reduction
Median reduction of plasma NH3 (plasma NH3; 24 hours post dose): 61%
